Patent publication US5789395A, “Method of using tetracycline compounds for inhibition of endogenous nitric oxide production” (The Research Foundation of State University of New York, priority 1996, dated 1998)
Entries after “also recorded” stand apart in the source; their conditions may differ.

Columns and labels:
iNOS mRNA = iNOS mRNA expression in LPS-stimulated RAW cells (Northern blot); assay type: cell-based, murine; conditions: Mus musculus, normalized against β-actin; for inhibition at 20 µg/mL: 20 μg/mL; for inhibition at 40 µg/mL: 40 μg/mL; for inhibition at 80 µg/mL: 80 μg/mL
Experimental: Northern blot analysis of the iNOS MRNA expressed by the cells was then carried out to evaluate precisely the effect of iNOS expression in the presence of doxycycline and minocycline. The probes again were the iNOS and β-actin CDNA probes described above.
In this case, total RNA was isolated using TRI Reagent (MRC Inc., Cincinnati, Ohio). […] Briefly, 30 μg of RNA was subjected to electrophoresis in 1% agarose formaldehyde gel. The gel was then transferred via capillary action onto a nylon membrane (Zeta Probe, Bio-Rad Laboratories, Melville, N.Y.). The membrane was hybridized with [^32 P]-dCTP-labeled iNOS CDNA (4 kb SmaI fragment), a kind gift from Dr. James Cunningham (Harvard Medical School, Boston, Mass.). After hybridization, the blot was exposed to Kodak X-ray film (Kodak, Rochester, N.Y.) for 24-48 h with intensifying screens at -70° C. The β-actin probe was purchased from ClonTech (Palo Alto, Calif.) and probed as described above. Quantitation of the intensity of the iNOS/β-actin bands was performed using a phosphoimager (Molecular Dynamics, Sunnyvale, Calif.).

iNOS [1] = test: iNOS activity (L-arginine-to-L-citrulline) in cell-free extracts of cells treated with modulator before LPS; assay type: cell-based, murine
Experimental: Murine macrophage cells (RAW 264.7) were incubated with 20-80 μg/mL doxycycline or minocycline, 10 μM hydrocortisone (Sigma Chemical Co., St. Louis, Mo.), or 75 μM L-NMMA for 1-2 h, followed by addition of LPS at 100 ng/mL and incubation for 16-18 h. Cell-free extracts were prepared at the end of each time period. Specific activity of iNOS was determined in the cell-free extracts by monitoring the conversion of L-[^3 H]-arginine to L-[^3 H]-citrulline as described by Amin et al. (1995b) and Vyas et al. (1996).
Cell-free extracts were prepared as follows: Following induction by incubation with LPS, the cells were pelleted at 4° C. and resuspended in Tris buffer (10 mM, pH 7.4) containing 10 μg/mL each chymostatin, antipain, leupeptin and pepstatin, 1 mM DTT and 1 mM PMSF. Cells were lysed in a Polytron PT 1200 homogenizer (Kinematica AG, Switzerland) after 3 cycles of rapid freeze-thawing. The lysate was centrifuged at 16,000 rpm for 60 min at 4° C., and the supernatants were used as cell-free extracts.
The protein in the extracts was measured by BCA assay reagent using BSA as standard (Smith et al. 1985). The reaction mixture for iNOS assay consists of Tris 50 mM (pH 7.8); BSA 1 mg/mL; DTT 1 mM; CaCl2, 2 mM; FAD 10 μM; BH4 10,μM; L-arginine 30 μM; NADPH 1 mM. The reaction mixture was spiked with 1μL (250 nM) of L-[^3 H]-arginine (Dupont NEN, Boston, Mass.) (1 mCi/mL=37.0 MBq/mL). After 20 min the assays were terminated by heating the reaction mixture at 90° C. for 5 min. Ten microiters (≈100,000 cpm) of the supernatant was spotted on activated AVICEL TLC plates (Analtech, Newark, Del.). The TLC plates were developed in a solvent system consisting of ethanol:water:ammonia (80:16:4). Quantitation of the spot for L-[^3 H]-citrulline was performed by a Bioscan System 200 Imaging Scanner.

iNOS [2] = target: T1, iNOS (Mus musculus, UniProt P29477); test: direct effect on specific activity of iNOS in cell-free extracts (L-arginine-to-L-citrulline conversion); assay type: biochemical, murine; conditions: for effect on the specific activity of iNOS in cell-free extracts: 20-80 μg/mL, 15 min preincubation; for effect on an ongoing L-arginine-to-L-citrulline reaction catalyzed by iNOS: cell-free extracts
T1 construct: prepared cell-free extracts as a source of iNOS enzyme; (cells); host or cells: RAW 264.7 murine macrophages, LPS-stimulated
Experimental: To evaluate the direct effect of doxycycline and minocycline on iNOS activity, we induced RAW 264.7 cells with LPS for 16 h in the absence of these agents and prepared cell-free extracts as a source of iNOS enzyme in the L-arginine-to-L-citrulline conversion assay.
Separate aliquots of the enzyme-containing cell-free extracts were preincubated for 15 min with 20-80 μg/ mL doxycycline, 20-80 μg/mL minocycline, 1 mM N-acetylimidazole and 200 μM L-NMMA, respectively, before the enzyme reaction was initiated by adding the co-factors. Various modulators including methanol (MeOH), the carrier for NAI (N-acetylimidazole), were added 15 min prior to the addition of the co-factors to initiate the iNOS reaction, as described. The specific activity was calculated and percent inhibition was compare to the original LPS-stimulated extract; 100% specific activity was 200 pmol citrulline/min/mg protein. The data shown in FIG. 4 represent one of two similar experiments.

| Compound | inhibition at 20 µg/mL (iNOS mRNA) [%] | inhibition at 40 µg/mL (iNOS mRNA) [%] | inhibition at 80 µg/mL (iNOS mRNA) [%] | IC50 to inhibit iNOS activity in cell lysates (iNOS [1]) [µg/mL] | inhibition of iNOS activity (iNOS [1]; 20 μg/mL) [%] | inhibition of iNOS activity (iNOS [1]; 40 μg/mL) [%] | inhibition of iNOS activity (iNOS [1]; 80 μg/mL) [%] | effect on the specific activity of iNOS in cell-free extracts (iNOS [2]) | effect on an ongoing L-arginine-to-L-citrulline reaction catalyzed by iNOS (iNOS [2]) |
| --- | --- | --- | --- | --- | --- | --- | --- | --- | --- |
| C[C@H]1c2cccc(O)c2C(O)=C2C(=O)[C@]3(O)C(O)=C(C(N)=O)C(=O)[C@@H](N(C)C)[C@@H]3[C@@H](O)[C@@H]21 [doxycycline] | 68 | 75 | 79 | 20 to 30 | 57 | 72 | 85 | minimal effect; also recorded: no significant effect | could not block |
| CN(C)c1ccc(O)c2c1C[C@H]1C[C@H]3[C@H](N(C)C)C(O)=C(C(N)=O)C(=O)[C@@]3(O)C(O)=C1C2=O [minocycline] | 39 | 49 | 77 | 20 to 30 | 45 | 69 | 69 | minimal effect; also recorded: no significant effect | could not block |
